Positions count from the first letter of the chain named.
Columns and labels:
[1] = Cmax in rat at 5 mg/kg; format: ADME, organism-based; design: dose 5 mg/kg; settings: in vivo
[2] = test system: Nonstructural protein 5A (Hepatitis C virus), Q5L478 [UNDEFINED MUTATION]; assay: Inhibition of HCV genotype 1a NS5A L31V mutant assessed as reduction in viral RNA level by cell based real time PCR method; settings: Hepatitis C virus subtype 1a
[3] = test system: T1, Nonstructural protein 5A (Hepatitis C virus), Q5L478 [Y93H]; assay: Inhibition of HCV genotype 1a NS5A Y93H mutant assessed as reduction in viral RNA level by cell based real time PCR method; settings: Hepatitis C virus subtype 1a
T1 sequence (whole entry): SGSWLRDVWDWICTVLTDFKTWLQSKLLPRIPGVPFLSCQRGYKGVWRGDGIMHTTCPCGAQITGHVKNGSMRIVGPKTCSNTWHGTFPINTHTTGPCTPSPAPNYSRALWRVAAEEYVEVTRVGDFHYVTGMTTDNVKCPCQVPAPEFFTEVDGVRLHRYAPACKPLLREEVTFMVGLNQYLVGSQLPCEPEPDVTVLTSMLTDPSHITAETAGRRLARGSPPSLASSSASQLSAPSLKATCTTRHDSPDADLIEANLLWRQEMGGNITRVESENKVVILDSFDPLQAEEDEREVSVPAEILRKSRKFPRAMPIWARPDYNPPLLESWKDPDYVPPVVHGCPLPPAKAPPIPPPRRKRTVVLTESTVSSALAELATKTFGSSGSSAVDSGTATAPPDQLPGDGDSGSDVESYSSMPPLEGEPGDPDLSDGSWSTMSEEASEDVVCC

[4] = target: T2, Nonstructural protein 5A (Hepatitis C virus) (UniProt Q5L478); assay: Inhibition of wild type HCV genotype 1a NS5A assessed as reduction in viral RNA level by cell based real time PCR method; settings: Hepatitis C virus subtype 1a
T2 sequence (whole entry): T1 sequence (whole entry) with H93Y

[5] = AUC in rat at 5 mg/kg; format: ADME, organism-based; settings: in vivo
[6] = target: T2, Nonstructural protein 5A (Hepatitis C virus); assay: Inhibition of wild type HCV genotype 2b NS5A assessed as reduction in viral RNA level by cell based real time PCR method; settings: Hepatitis C virus subtype 2b
[7] = Oral bioavailability in rat at 5 mg/kg; format: ADME, organism-based; settings: in vivo
[8] = Half life in rat at 5 mg/kg; format: ADME, organism-based; settings: in vivo
[9] = Tmax in rat at 10 mg/kg; format: ADME, organism-based; settings: in vivo
[10] = Drug level in rat at 10 mg/kg measured at 1 hr; format: ADME, organism-based; settings: in vivo, read-out: Drug uptake
[11] = Cmax in rat at 10 mg/kg; format: ADME, organism-based; design: dose 10 mg/kg; settings: in vivo

| SMILES | Cmax [1] [nM] | EC90 [2] [nM] | EC90 [3] [nM] | EC90 [4] [nM] | AUC [5] [nM·h] | EC90 [6] [nM] | bioavailability [7] [%] | half-life [8] [h] | Tmax [9] [h] | concentration at 1 h [10] [nM] | Cmax [11] [nM] |
| --- | --- | --- | --- | --- | --- | --- | --- | --- | --- | --- | --- |
| COC(=O)N[C@H](C(=O)N1CCC[C@H]1c1ncc(-c2ccc3c(c2)O[C@@H](c2ccccc2)n2c-3cc3cc(-c4cnc([C@@H]5CCCN5C(=O)[C@@H](NC(=O)OC)C5CCOCC5)[nH]4)ccc32)[nH]1)C1CCOCC1 | 20 | < 0.2 | 23 | 0.06 | 4 | 1.2 | 0 | 2.4 |  |  |  |
| COC(=O)N[C@H](C(=O)N1CCC[C@H]1c1ncc(-c2ccc3c(c2)cc2n3[C@H](c3ccccc3)Oc3cc(-c4cnc([C@@H]5CCCN5C(=O)[C@@H](NC(=O)OC)C5CCOCC5)[nH]4)ccc3-2)[nH]1)C(C)C |  | 0.4 | 11 | 0.061 |  | 4 |  |  | 0.75 | 30 | 31 |
| COC(=O)N[C@H](C(=O)N1CCC[C@H]1c1ncc(-c2ccc3c(c2)O[C@@H](c2ccccc2)n2c-3cc3cc(-c4cnc([C@@H]5CCCN5C(=O)C5(NC(=O)OC)CCCCC5)[nH]4)ccc32)[nH]1)C(C)C |  | 14.7 | > 100 | 0.035 |  | > 100 |  |  |  |  |  |

From ChEMBL document CHEMBL4425153, “Matched and mixed cap derivatives in the tetracyclic indole class of HCV NS5A inhibitors” (Bioorg Med Chem Lett, 2016)
